Values of other authors, collected in patent US20060280786A1, “PHARMACEUTICAL FORMULATIONS FOR MINIMIZING DRUG-DRUG INTERACTIONS” (priority 2005, published 2006).

Conditions: 200 mg dose of itraconazole

CCC(C)n1ncn(-c2ccc(N3CCN(c4ccc(OCC5COC(Cn6cncn6)(c6ccc(Cl)cc6Cl)O5)cc4)CC3)cc2)c1=O (stereo not shown) [itraconazole]
fu (fraction of inhibitor drug unbound in plasma): 0.035
